Measurements from ChEMBL document CHEMBL5257112, “Discovery of 4-oxo-4,5-dihydropyrazolo[1,5-a]quinoxaline-7-carboxamide derivatives as PI3Kα inhibitors via virtual screening and docking-based structure optimization” (Bioorg Med Chem, 2023).

Legend:
[1] = target: Phosphatidylinositol 4,5-bisphosphate 3-kinase catalytic subunit alpha isoform (Homo sapiens, UniProt P42336); test: Inhibition of PI3Kalpha (unknown origin) using PIP2:PS as substrate preincubated for 1 hr followed by ATP and substate addition and measured after 1 hr by ADP-glo reagent based assay
[2] = target: T1, Phosphatidylinositol 4,5-bisphosphate 3-kinase catalytic subunit delta isoform (Homo sapiens, UniProt O00329); test: Inhibition of PI3Kdelta (unknown origin) using PIP2:PS as substrate preincubated for 1 hr followed by ATP and substate addition and measured after 1 hr by ADP-glo reagent based assay
T1 sequence (O00329 whole entry): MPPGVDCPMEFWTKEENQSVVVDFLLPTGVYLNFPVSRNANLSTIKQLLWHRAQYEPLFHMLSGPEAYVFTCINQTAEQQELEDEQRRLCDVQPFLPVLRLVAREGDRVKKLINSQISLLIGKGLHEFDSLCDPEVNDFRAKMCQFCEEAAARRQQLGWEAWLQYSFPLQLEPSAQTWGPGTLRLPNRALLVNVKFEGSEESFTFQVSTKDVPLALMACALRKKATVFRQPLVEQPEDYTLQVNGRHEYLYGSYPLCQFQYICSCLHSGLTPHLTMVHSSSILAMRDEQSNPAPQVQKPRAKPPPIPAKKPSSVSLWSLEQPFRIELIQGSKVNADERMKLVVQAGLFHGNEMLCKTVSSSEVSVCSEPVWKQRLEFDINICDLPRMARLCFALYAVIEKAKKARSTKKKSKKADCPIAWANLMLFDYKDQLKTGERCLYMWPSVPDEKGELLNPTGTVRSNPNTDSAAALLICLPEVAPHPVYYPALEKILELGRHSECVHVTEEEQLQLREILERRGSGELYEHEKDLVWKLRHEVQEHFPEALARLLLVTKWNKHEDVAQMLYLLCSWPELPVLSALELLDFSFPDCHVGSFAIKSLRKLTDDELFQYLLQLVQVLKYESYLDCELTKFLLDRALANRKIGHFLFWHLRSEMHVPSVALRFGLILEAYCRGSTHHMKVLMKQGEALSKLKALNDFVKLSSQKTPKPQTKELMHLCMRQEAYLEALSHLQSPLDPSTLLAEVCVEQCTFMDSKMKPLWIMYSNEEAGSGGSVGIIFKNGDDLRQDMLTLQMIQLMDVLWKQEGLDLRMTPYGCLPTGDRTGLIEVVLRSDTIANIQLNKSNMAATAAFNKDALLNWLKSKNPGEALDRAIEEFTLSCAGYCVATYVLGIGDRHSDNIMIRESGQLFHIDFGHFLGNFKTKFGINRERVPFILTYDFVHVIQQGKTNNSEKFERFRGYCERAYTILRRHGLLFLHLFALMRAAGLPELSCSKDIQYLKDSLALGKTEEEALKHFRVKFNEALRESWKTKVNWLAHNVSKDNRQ

[3] = Cmax in mouse at 5 mg/kg, po measured after 24 hrs by LC/MS/MS analysis; assay type: ADME, organism-based; set-up: time 24 hrs, dose 5 mg/kg, route po; settings: in vivo
[4] = AUC(0 to t) in mouse at 5 mg/kg, po measured after 24 hrs by LC/MS/MS analysis; assay type: ADME, organism-based; set-up: dose 5 mg/kg, time 24 hrs, route po; settings: in vivo
Kasumi 1 = test: Antiproliferative activity against human Kasumi 1 cells assessed as cell growth inhibition incubated for 72 hrs by MTT assay; assay type: functional, cell-based; settings: Kasumi 1, 72 h
[5] = target: Phosphatidylinositol 4,5-bisphosphate 3-kinase catalytic subunit gamma isoform (Homo sapiens, UniProt P48736); test: Inhibition of PI3Kgamma (unknown origin) using PIP2:PS as substrate preincubated for 1 hr followed by ATP and substate addition and measured after 1 hr by ADP-glo reagent based assay
[6] = AUC(0 to t) in mouse at 1 mg/kg, iv measured after 24 hrs by LC/MS/MS analysis; assay type: ADME, organism-based; set-up: dose 1 mg/kg, time 24 hrs, route iv; settings: in vivo
[7] = Cmax in mouse at 1 mg/kg, iv measured after 24 hrs by LC/MS/MS analysis; assay type: ADME, organism-based; set-up: time 24 hrs, dose 1 mg/kg, route iv; settings: in vivo
[8] = target: Phosphatidylinositol 4,5-bisphosphate 3-kinase catalytic subunit beta isoform (Homo sapiens, UniProt P42338); test: Inhibition of PI3Kbeta (unknown origin) using PIP2:PS as substrate preincubated for 1 hr followed by ATP and substate addition and measured after 1 hr by ADP-glo reagent based assay
[9] = Oral bioavailability in mouse at 5 mg/kg measured after 24 hrs by LC/MS/MS analysis; assay type: ADME, organism-based; settings: in vivo
[10] = Volume of distribution in mouse at 1 mg/kg, iv measured after 24 hrs by LC/MS/MS analysis; assay type: ADME, organism-based; settings: in vivo
T47D = test: Antiproliferative activity against human T47D cells expressing PIK3CA mutant assessed as cell growth inhibition incubated for 72 hrs by MTT assay; assay type: functional, cell-based
[11] = Inhibition of PI3K/AKT/mTOR signaling pathway in human T47D cells assessed as reduction in Akt phosphorylation at S473 residue preincubated for 1 hr followed by recombinant human insulin-like growth factor 1 stimulation by Western blot analysis; assay type: cell-based; settings: dose 0.01-10 µM
[12] = Volume of distribution in mouse at 5 mg/kg, po measured after 24 hrs by LC/MS/MS analysis; assay type: ADME, organism-based; settings: in vivo
[13] = Half life in mouse at 5 mg/kg, po measured after 24 hrs by LC/MS/MS analysis; assay type: ADME, organism-based; settings: in vivo
[14] = Clearance in mouse at 5 mg/kg, po measured after 24 hrs by LC/MS/MS analysis; assay type: ADME, organism-based; settings: in vivo
[15] = Clearance in mouse at 1 mg/kg, iv measured after 24 hrs by LC/MS/MS analysis; assay type: ADME, organism-based; settings: in vivo
[16] = Half life in mouse at 1 mg/kg, iv measured after 24 hrs by LC/MS/MS analysis; assay type: ADME, organism-based; settings: in vivo

Phosphatidylinositol 4,5-bisphosphate 3-kinase catalytic subunit alpha isoform, sequence (P42336 whole entry, canonical isoform): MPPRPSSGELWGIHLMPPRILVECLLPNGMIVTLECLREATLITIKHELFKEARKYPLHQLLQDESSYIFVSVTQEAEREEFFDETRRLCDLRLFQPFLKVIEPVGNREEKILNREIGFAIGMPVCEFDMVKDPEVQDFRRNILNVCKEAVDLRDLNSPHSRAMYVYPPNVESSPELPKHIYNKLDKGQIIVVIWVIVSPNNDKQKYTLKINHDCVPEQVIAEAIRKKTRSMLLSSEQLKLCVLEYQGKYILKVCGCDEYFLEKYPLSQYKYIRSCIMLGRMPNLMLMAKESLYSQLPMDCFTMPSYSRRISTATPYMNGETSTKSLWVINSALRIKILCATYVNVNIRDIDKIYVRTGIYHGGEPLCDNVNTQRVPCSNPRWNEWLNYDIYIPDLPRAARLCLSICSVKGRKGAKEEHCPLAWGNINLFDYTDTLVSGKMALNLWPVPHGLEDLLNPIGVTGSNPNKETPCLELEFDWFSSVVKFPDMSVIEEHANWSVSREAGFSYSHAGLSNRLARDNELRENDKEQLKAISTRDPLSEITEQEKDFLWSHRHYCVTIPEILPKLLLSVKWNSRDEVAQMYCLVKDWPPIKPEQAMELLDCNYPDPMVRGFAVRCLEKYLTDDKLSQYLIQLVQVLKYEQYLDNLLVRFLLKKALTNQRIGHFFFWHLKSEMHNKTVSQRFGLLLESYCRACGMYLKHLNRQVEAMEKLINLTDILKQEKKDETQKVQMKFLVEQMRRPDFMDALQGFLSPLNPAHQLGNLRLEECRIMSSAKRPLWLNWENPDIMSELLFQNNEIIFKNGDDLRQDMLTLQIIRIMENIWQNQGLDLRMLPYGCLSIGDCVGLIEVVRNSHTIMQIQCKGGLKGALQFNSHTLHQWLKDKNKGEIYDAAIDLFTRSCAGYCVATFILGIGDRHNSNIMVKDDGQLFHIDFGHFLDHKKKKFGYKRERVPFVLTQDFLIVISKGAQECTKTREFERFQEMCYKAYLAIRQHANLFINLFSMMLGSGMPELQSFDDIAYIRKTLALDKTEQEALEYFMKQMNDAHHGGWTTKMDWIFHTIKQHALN
Phosphatidylinositol 4,5-bisphosphate 3-kinase catalytic subunit beta isoform, sequence (P42338 whole entry, canonical isoform): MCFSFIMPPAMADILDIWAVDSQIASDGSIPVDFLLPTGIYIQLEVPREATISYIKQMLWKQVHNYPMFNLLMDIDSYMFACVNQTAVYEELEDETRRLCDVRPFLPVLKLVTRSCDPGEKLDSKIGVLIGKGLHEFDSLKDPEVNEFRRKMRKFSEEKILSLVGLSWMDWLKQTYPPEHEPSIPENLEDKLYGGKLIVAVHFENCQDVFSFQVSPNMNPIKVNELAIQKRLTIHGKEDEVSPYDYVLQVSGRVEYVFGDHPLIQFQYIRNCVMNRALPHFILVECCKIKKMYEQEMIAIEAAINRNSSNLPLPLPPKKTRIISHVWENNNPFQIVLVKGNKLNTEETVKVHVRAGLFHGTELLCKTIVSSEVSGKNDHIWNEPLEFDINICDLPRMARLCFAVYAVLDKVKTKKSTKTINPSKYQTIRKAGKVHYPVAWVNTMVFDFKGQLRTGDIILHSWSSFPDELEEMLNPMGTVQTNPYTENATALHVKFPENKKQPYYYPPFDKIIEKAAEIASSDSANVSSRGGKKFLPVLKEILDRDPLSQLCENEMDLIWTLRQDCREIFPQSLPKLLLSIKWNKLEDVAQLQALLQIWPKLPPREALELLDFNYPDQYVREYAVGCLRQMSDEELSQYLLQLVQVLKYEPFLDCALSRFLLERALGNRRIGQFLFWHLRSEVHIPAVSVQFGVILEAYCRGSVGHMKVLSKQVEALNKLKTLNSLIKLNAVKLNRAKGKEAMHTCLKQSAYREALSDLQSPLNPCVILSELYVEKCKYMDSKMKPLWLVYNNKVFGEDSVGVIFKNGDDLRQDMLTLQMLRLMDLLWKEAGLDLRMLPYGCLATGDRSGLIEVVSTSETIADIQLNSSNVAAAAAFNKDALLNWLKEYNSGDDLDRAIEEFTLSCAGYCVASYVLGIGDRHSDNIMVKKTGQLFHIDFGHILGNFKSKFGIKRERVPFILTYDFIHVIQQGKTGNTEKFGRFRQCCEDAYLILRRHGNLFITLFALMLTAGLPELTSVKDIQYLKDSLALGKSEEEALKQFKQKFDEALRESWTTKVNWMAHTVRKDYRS
Phosphatidylinositol 4,5-bisphosphate 3-kinase catalytic subunit gamma isoform, sequence (P48736 whole entry, canonical isoform): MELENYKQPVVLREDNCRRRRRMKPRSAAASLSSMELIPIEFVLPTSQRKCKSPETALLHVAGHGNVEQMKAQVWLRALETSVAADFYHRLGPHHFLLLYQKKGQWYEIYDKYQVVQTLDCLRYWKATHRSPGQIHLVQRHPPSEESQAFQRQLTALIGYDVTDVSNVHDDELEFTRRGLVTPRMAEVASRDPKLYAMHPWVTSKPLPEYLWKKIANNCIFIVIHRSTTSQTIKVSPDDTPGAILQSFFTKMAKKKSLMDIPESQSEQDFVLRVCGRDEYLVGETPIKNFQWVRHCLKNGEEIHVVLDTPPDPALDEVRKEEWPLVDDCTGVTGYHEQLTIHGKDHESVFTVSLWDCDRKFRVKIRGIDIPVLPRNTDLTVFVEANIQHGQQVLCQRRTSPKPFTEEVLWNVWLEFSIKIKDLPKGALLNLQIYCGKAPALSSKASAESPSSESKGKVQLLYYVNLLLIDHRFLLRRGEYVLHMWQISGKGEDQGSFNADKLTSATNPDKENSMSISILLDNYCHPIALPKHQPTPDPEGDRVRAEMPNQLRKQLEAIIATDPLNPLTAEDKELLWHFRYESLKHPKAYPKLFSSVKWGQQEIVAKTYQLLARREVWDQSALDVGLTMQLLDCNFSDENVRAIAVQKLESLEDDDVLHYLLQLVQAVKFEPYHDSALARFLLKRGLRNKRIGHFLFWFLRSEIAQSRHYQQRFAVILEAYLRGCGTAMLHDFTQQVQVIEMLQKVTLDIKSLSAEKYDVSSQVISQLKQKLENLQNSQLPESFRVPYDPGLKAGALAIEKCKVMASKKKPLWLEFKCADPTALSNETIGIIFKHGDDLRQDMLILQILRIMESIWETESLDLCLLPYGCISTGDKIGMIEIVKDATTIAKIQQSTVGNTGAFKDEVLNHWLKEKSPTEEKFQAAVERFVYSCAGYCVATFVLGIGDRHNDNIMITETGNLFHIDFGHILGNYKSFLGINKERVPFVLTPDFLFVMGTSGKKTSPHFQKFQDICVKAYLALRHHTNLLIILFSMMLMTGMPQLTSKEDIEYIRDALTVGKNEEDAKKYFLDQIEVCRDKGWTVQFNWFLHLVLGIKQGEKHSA

SMILES | IC50 [1] [µM] | also measured
CCNC(=O)c1ccc2c(c1)n(Cc1ccccc1)c(=O)c1ccnn12 | 3.61 | 
CCn1c(=O)c2cc(C(C)C)nn2c2ccc(C(=O)NCc3cccnc3)cc21 | > 20 | 
CCN1C(=O)N2CCCN=C2c2ccc(C(=O)NCc3cccnc3)cc21 | > 20 | 
O=C(c1ccc2c(c1)[nH]c(=O)c1ccnn12)N1CCN(C2CCCC2)CC1 | > 20 | 
CCn1c(=O)c2cc(C)nn2c2ccc(C(=O)NCc3cccnc3)cc21 | 11.4 | 
CCn1c(=O)c2ccnn2c2cc(N)c(C(=O)NCc3cccnc3)cc21 | 0.87 | IC50 [2]: 5.74 µM; Cmax [3]: < 50 ng/mL; AUC(0-t) at 24 h [4]: < 100 ng·h/mL; IC50 (Kasumi 1): 4.38 µM; IC50 [5]: 1.4 µM; AUC(0-t) at 24 h [6]: < 100 ng·h/mL; Cmax [7]: < 50 ng/mL; IC50 [8]: 0.72 µM
CCn1c(=O)c2ccnn2c2ccc(C(=O)NCc3ccc(C)nc3)cc21 | 3.62 | 
CCN1C(=O)N2CC(C)(C)CN=C2c2ccc(C(=O)NCc3cccnc3)cc21 | > 20 | 
CCn1c(=O)c2ccnn2c2ccc(C(=O)NCc3cncc(C)c3)cc21 | 2.65 | 
O=C(NCc1cccnc1)c1ccc2c(c1)n(CC1CC1)c(=O)c1ccnn12 | 2.65 | 
CCn1c(=O)c2cccn2c2ccc(C(=O)NCc3cccnc3)cc21 | > 20 | 
CCn1c(=O)c2ccnn2c2ccc(C(=O)NCc3cnccc3C)cc21 | 3.52 | 
CCNC(=O)c1ccc2c(c1)n(CCN1CCCCC1)c(=O)c1ccnn12 | 5.25 | 
CCn1c(=O)c2ccnn2c2cc(N)c(C(=O)NCc3cncnc3)cc21 | 0.24 | IC50 [2]: 4.1 µM; Cmax [3]: 863 ng/mL; bioavailability [9]: 91.8%; AUC(0-t) at 24 h [4]: 3290 ng·h/mL; IC50 (Kasumi 1): 1.64 µM; Vd [10]: 3.13 L/kg; IC50 [5]: 0.83 µM; AUC(0-t) at 24 h [6]: 717 ng·h/mL; IC50 (T47D): 1.82 µM; inhibition [11]: Dose-Dependent Effect; Vd [12]: 6.36 L/kg; half-life [13]: 4.97 h; CL/F [14]: 15.7 mL/min/kg; Cmax [7]: 567 ng/mL; IC50 [8]: > 10 µM; clearance [15]: 20.5 mL/min/kg; half-life [16]: 2.52 h
CN1CCC(N2CCN(C(=O)c3ccc4c(c3)[nH]c(=O)c3ccnn34)CC2)CC1 | > 20 | 
CCn1c(=O)c2ccnn2c2cc(NC)c(C(=O)NCc3cccnc3)cc21 | > 20 | IC50 [2]: > 20 µM; IC50 [5]: > 20 µM; IC50 [8]: 4.89 µM
CCn1c(=O)c2ccnn2c2cc(N(C)C)c(C(=O)NCc3cccnc3)cc21 | > 20 | IC50 [2]: > 20 µM; IC50 [5]: > 20 µM; IC50 [8]: 15 µM
CCn1c(=O)c2ccnn2c2ccc(C(=O)NCc3ccncc3)cc21 | 2.86 | 
O=C(NCc1cccnc1)c1ccc2c(c1)n(Cc1ccc(OC(F)(F)F)cc1)c(=O)c1ccnn12 | > 20 | 
CCn1c(=O)c2ccnn2c2ccc(C(=O)NCc3cncnc3)cc21 | 1.59 | 
CCCCn1c(=O)c2ccnn2c2ccc(C(=O)NCc3cccnc3)cc21 | 2 | 
CC(C)(C)c1ccc(Cn2c(=O)c3ccnn3c3ccc(C(=O)NCc4cccnc4)cc32)cc1 | > 20 | 
CCn1c(=O)c2nccn2c2ccc(C(=O)NCc3cccnc3)cc21 | > 20 | 
CCn1c(=O)c2ccnn2c2ccc(C(=O)NCCc3cccnc3)cc21 | 13.9 | 
CCN1C(=O)[C@H]2CCCN2c2ccc(C(=O)NCc3cccnc3)cc21 | > 20 | 

SMILES | IC50 [1] [µM] | also measured
CCn1c(=O)c2ccnn2c2ccc(C(=O)N3CCN(C)CC3)cc21 | > 20 | 
CCN1C(=O)[C@@H]2CCCN2c2ccc(C(=O)NCc3cccnc3)cc21 | > 20 | 
CCn1c(=O)c2ccnn2c2ccc(C(=O)NCc3ccccn3)cc21 | 2.86 | 
CS(=O)(=O)c1ccc(Cn2c(=O)c3ccnn3c3ccc(C(=O)NCc4cccnc4)cc32)cc1 | > 20 | 
CCn1c(=O)c2ccnn2c2ccc(C(=O)NCc3cccnc3)cc21 | 3.52 | 
CCn1c(=O)c2ccnn2c2ccc(C(=O)NCc3cnccn3)cc21 | 4.76 | 
CCn1c(=O)c2cnc(C)n2c2ccc(C(=O)NCc3cccnc3)cc21 | 3.63 | 
CCn1c(=O)c2ccnn2c2ccc(C(=O)NCCCN3CCOCC3)cc21 | 4.18 | 
CCn1c(=O)c2ccnn2c2cc(NC(C)=O)c(C(=O)NCc3cncnc3)cc21 | > 20 | IC50 [2]: > 20 µM; IC50 [5]: > 20 µM; IC50 [8]: > 20 µM
O=C(NCc1cccnc1)c1ccc2c(c1)n(Cc1ccc(C(F)(F)F)cc1)c(=O)c1ccnn12 | > 20 | 
O=C(NCCN1CCOCC1)c1ccc2c(c1)n(Cc1ccccc1)c(=O)c1ccnn12 | 10.3 | 
CCNC(=O)c1ccc2c(c1)n(CCOC)c(=O)c1ccnn12 | 6.43 | 
CCn1c(=O)c2ccnn2c2ccc(C(=O)NCCN3CCOCC3)cc21 | 10.9 | 
CCNC(=O)c1ccc2c(c1)n(CCCN(C)C)c(=O)c1ccnn12 | 4.26 | 
CCn1c(=O)c2ccnn2c2ccc(C(=O)N3CCN(c4ccccc4)CC3)cc21 | > 20 | 
O=C(NCCN1CCOCC1)c1ccc2c(c1)n(Cc1ccc(F)cc1)c(=O)c1ccnn12 | 9.62 | 
CCN1C(=O)N2CCN=C2c2ccc(C(=O)NCc3cccnc3)cc21 | > 20 | 
CCNC(=O)c1ccc2c(c1)n(CC)c(=O)c1ccnn12 | 9.3 | 
Cc1nc(NC(=O)N2CCC[C@H]2C(N)=O)sc1-c1ccnc(C(C)(C)C(F)(F)F)c1 [ALPELISIB] |  | IC50 (Kasumi 1): 0.44 µM; IC50 (T47D): 0.1 µM
CNC(=O)c1ccc2c(c1)n(CCCN(C)C1CCCCC1)c(=O)c1ccnn12 | 11 | 
CCn1c(=O)c2ccnn2c2ccc(C(=O)NCc3cnn(C)c3)cc21 | 5.47 | 
Cn1c(=O)c2ccnn2c2ccc(C(=O)NCCN3CCOCC3)cc21 | 12.3 | 
CCn1c(=O)c2ccnn2c2ccc(C(=O)NCc3cccnc3C)cc21 | 4.51 | 
CCN1C(=O)C2CCCCN2c2ccc(C(=O)NCc3cccnc3)cc21 (centres undefined) | > 20 | 
